Values quoted from earlier work in US11883453B2, “Formulation based on medicinal plant, or part or extract thereof, use of the formulation and product including said formulation” (priority 2018, dated 2024).

Legend:
[1] = rate proportional to concentration
[2] = disk-diffusion
[3] = tested on: 3T3 fibroblast strains; conditions: MTT, 3T3 fibroblasts
[4] = tested on: 3T3 fibroblast strains; conditions: Scratch Assay, 3T3 fibroblasts, compared to Calendula extract

SMILES	Elimination of free radicals [1]	Antimicrobial activity (inhibition halos in agar) [2]	Cytotoxicity [3]	Effect on in vitro healing [4]
C=C(C)[C@@H]1CC[C@]2(C)CC[C@]3(C)[C@H](CC[C@@H]4[C@@]5(C)CC[C@H](O)C(C)(C)[C@@H]5CC[C@]43C)[C@@H]12 [Lupeol]	excellent properties to eliminate free radicals	confirmed the antimicrobial activity	no toxicity found	
CCCCCCCCCCCCCC(=O)OC1CCC2(C)C(CCC3(C)C2CCC2C4C(C)C(C)=CCC4(C)C(O)CC23C)C1(C)C (centres unmarked) [faradiol myristate]				partial role in the healing process compared to the extract
CCCCCCCCCCCCCCCC(=O)OC1CCC2(C)C(CCC3(C)C2CCC2C4C(C)C(C)=CCC4(C)C(O)CC23C)C1(C)C (centres unmarked) [faradiol palmitate]				partial role in the healing process compared to the extract
